The results in this text go back to PMC7763008, “Antimicrobial, Anticancer and Multidrug-Resistant Reversing Activity of Novel Oxygen-, Sulfur- and Selenoflavones and Bioisosteric Analogues” (Pharmaceuticals, 2020).

Where two headings read alike, the source gives them in different places.

Series [1] concerns the target P-gp (ABCB1) efflux pump in MDR Colo 320 colon adenocarcinoma cells (Homo sapiens, UniProt P08183). Description: Rhodamine 123 accumulation assay (MDR efflux pump inhibition, flow cytometry). The following applies: for FAR (fluorescence activity ratio): MDR Colo 320 vs sensitive Colo 205; for FAR Quotient (%): FAR of compound / FAR of verapamil (20 μM) x 100; for Increase in efflux pump inhibitory activity of naphthyl vs corresponding phenyl derivative: naphthyl-substituted vs phenyl-substituted chalcogen flavone, 20 µM data. A general note: Flow cytometry measures light scatter and fluorescence of single cells or particles in a stream.
Description: The P-glycoprotein (P-gp) inhibitory properties of the tested flavone derivatives were evaluated in a rhodamine R123 accumulation assay in two different concentrations.
This is a fluorescence-based detection assay which uses verapamil as a reference inhibitor of P-gp efflux pump. […] Compounds (1 μL and 10 μL from a stock solution of 1 mM) were added to the medium to achieve solutions with final concentrations of 2 μM and 20 μM respectively, followed by incubation of the sample for 10 min at room temperature. […] The fluorescence intensity of the cell population was measured with a Partec CyFlow flow cytometer (Partec, Munster, Germany). Verapamil (20 μM) was employed as a positive control. […] The fluorescence activity ratio (FAR) was calculated employing the following equation [20, 26]:FAR = (MDRtreated/MDRcontrol)/(sensitivetreated/ sensitivecontrol)(1)
FAR Quotient % was calculated as follows:Quotient = (FARcompound/FARverapamil) × 100(2)

Series [2] concerns Colo 205 human colonic adenocarcinoma cell line (doxorubicin-sensitive). Description: MTT cytotoxic activity assay, Colo 205. Format: cell-based. The following applies: COLO 205, read-out: Cytotoxic activity, A—Colo 205 IC50. The text has this: (§1) Three cell lines have been used in this work: (i), the doxorubicin-sensitive Colo 205 (ATCC-CCL-222) human colonic adenocarcinoma cell line; (ii) the multidrug resistant Colo 320/MDR-LRP expressing P-gp (MDR1)-LRP (ATCC-CCL-220.1) human colonic adenocarcinoma cell line; and the MRC-5 human embryonal lung fibroblast cell line (ATCC CCL-171). The three cell lines were purchased from LGC Promochem, Teddington, UK.
(§2) Colo 205 (ATCC-CCL-222) and Colo 320/MDR-LRP expressing P-gp (MDR1)-LRP (ATCC-CCL-220.1 human colon adenocarcinoma cell lines. As previously described, the cells were cultured in RPMI 1640 medium supplemented with 10% heat-inactivated fetal bovine serum, 2 mM L-glutamine, 1 mM Na-pyruvate, and 100 mM Hepes. The cell lines were incubated at 37 °C, in a 5% CO2, 95% air atmosphere. The semi-adherent human colon cancer cells were detached with Trypsin-Versene (EDTA) solution for 5 min at 37 °C [20].
(§3) The influence of synthetic flavonoid derivatives (compounds 1–6) on the doxorubicin-sensitive Colo 205, multidrug resistant Colo 320/MDR-LRP adenocarcinoma and MRC-5 cell lines was evaluated employing the MTT metabolic activity assay, using a procedure described in Supplementary Materials and in previous works, and applying the appropriate formulas to calculate the cell growth inhibition and the selectivity index (SI), as well as the criterion to determine whether a compound is strongly or moderately selective.
(§4) Briefly, the serial dilutions in culture medium required for the MTT metabolic assay (ranging from 100 to 0.195 µM) were freshly prepared before the assay. The stock solutions (10 mM) of the tested compounds were prepared in pure DMSO and the final concentration of DMSO was adjusted to less than 1% threshold in the biological experiments. The concentration-dependent growth inhibition was evaluated in 96-well flat-bottomed microtiter plates. Doxorubicin (DOXO) was employed as a positive control whilst culture medium containing cells was used as a negative control.
(§5) In the case of the colonic adenocarcinoma cells, two-fold serial dilutions of the flavone compounds were prepared in 100 μL of RPMI 1640, horizontally. Furthermore, the semi-adherent colonic adenocarcinoma cells were treated with Trypsin-Versene (EDTA) solution. Then, cells were adjusted to a density of 5 × 10^3/well for antiproliferative assay and 1 × 10^4/well for the estimation of cytotoxic activity in 100 µL of medium. The cells were added to each well except to the medium control wells. The culture plates were subsequently incubated at 37 °C for 24 h and 72 h, respectively; 20 μL of MTT solution (thiazolyl blue tetrazolium bromide, Sigma) were added to each well from MTT stock solution (5 mg /mL) after incubation. After 4 h of incubation at 37 °C, 100 μL of sodium dodecyl sulfate (SDS) solution (10% in 0.01 M HCl) was added to each well and all plates were incubated at 37 °C overnight. Finally, cell growth was determined by measuring the optical density (OD) at 540 nm (ref. 630 nm) with Multiscan EX ELISA reader (Thermo Labsystems, Cheshire, WA, USA).
(§6) The inhibition of the cell growth was determined according to the formula mentioned elsewhere. Finally, the cell viability and IC50 values for every tested compound and doxorubicin were calculated using GraphPad Prism, version 5.03.
In general terms: Tetrazolium dyes change colour on reduction, which living cells bring about.

For series [3], the system named is Escherichia coli. Description: Antibacterial growth assay, E. coli. Format: cell-based. Particulars: highest concentration (200 µM; not restated for E. coli). The protocol: (§7) The antimicrobial activities of the compounds were determined according to the protocol described in the literature, employing a Universal Microplate Reader, EL800, Biotech Instruments, Inc. Highland Park, Winooski, VT, USA [23, 24, 25].
(§8) In short words, compounds were dissolved in DMSO and later diluted in the adequate growth media to be evaluated at the final concentrations of 50, 100, 150, and 200 µM. Nutrient Luria Bertani (LB) broth, bacterial basic media, Sabouraud Dextrose (SD), and Yeast Peptone Dextrose (YPD) were exploited as media for Escherichia coli, Staphylococcus carnosus, Candida albicans, and Saccharomyces cerevisiae, respectively. In all cases, the final concentration of DMSO was 1% or less. A mixture of penicillin, streptomycin, and amphotericin B (4 U, 0.4 µg/mL and 10 µg/mL, respectively) was employed as positive control for S. carnosus and E. coli, while ketoconazole was utilized as the positive control for C. albicans and S. cerevisiae. The untreated culture in medium was employed as the negative control for each organism; 1% DMSO stock solution was used as a solvent control. All experiments were performed in triplicates and on three independent occasions (n = 9).

Series [4] concerns Colo 320/MDR-LRP human colonic adenocarcinoma cell line (multidrug resistant). Description: MTT antiproliferative activity assay, Colo 320. The following applies: 5 × 10^3 cells/well, read-out: Antiproliferative activity, B—Colo 320 IC50. In kind it is cell-based.
Source text: as §1, §2, §3, §4, §5, §6

For series [5], the system named is Colo 205 human colonic adenocarcinoma cell line (doxorubicin-sensitive). Description: MTT antiproliferative activity assay, Colo 205. The following applies: 5 × 10^3 cells/well. Format: cell-based.
Source text: as §1, §2, §3, §4, §5, §6

For series [6], the system named is Colo 320/MDR-LRP human colonic adenocarcinoma cell line (multidrug resistant). Description: MTT cytotoxic activity assay, Colo 320. Format: cell-based.
Source text: as §1, §2, §3, §4, §5, §6

A short description of series [7]: MTT cytotoxic activity assay, MRC-5. Format: cell-based. The following applies: human.
Source text: as §1
MRC-5 human embryonal lung fibroblast cell line (ATCC CCL-171). As previously described, the cells were cultured in Eagle’s Minimal Essential Medium (EMEM, containing 4.5 g/L of glucose) supplemented with a non-essential amino acid mixture, a selection of vitamins and 10% heat-inactivated fetal bovine serum. The cell lines were incubated at 37 °C, in a 5% CO2, 95% air atmosphere.
as §3, §4
Prior to the experiments, the adherent human embryonal lung fibroblasts (MRC-5) were cultured in flat-bottomed microtiter 96-well plates in an EMEM media supplemented with 10% heat-inactivated fetal bovine serum. Cells were seeded at a density of 10.000 cells per well for 24 h before the beginning of the experiment. The cells were cultured at 37 °C in the humidified cell incubator with the 5% of CO2 and 95% air environment. The medium was subsequently removed from the plates containing the cells, and the dilutions of tested compounds, previously made in a separate micro-titration plate, were added to the cells (at final volume equal to 200 μL).
as §6

The subject of series [8] is Staphylococcus carnosus. Description: Antibacterial growth assay, S. carnosus. The following applies: highest concentration of 200 µM. Format: cell-based. The protocol: as §7, §8
Series [9] relates to S. feltiae. Description: Nematicidal activity assay. The following applies: Steinernema feltiae; for viability at 200 µM: read-out: Viability of the nematodes; for IC50: in Figure 2. In kind it is in vivo. The procedure:
The soil nematodes S. feltiae were freshly purchased for experiment from Sautter and Stepper GmbH (Ammerbuch, Germany) and stored at 4 °C in the dark. The assay was performed according to the protocols described in the literature. Results were expressed as mean ± standard deviation (SD) and their statistical significance values were determined by one-way ANOVA followed by Tukey’s multiple comparison test. To consider data statistically significant, the p value should be ≤ 0.05.

Where [10] appears, read: COLO 320, read-out: Cytotoxic activity, B—Colo 320 IC50.
Setting [11] is: MTT, 1 × 10^4 cells/well, Colo 320, read-out: Cytotoxic activity, B—Colo 320 IC50.
Setting [12] is: MTT, MRC-5 normal lung fibroblasts, read-out: Cytotoxic activity, C—MRC-5 IC50.

P-gp (ABCB1) efflux pump in MDR Colo 320 colon adenocarcinoma cells, sequence (P08183 whole entry): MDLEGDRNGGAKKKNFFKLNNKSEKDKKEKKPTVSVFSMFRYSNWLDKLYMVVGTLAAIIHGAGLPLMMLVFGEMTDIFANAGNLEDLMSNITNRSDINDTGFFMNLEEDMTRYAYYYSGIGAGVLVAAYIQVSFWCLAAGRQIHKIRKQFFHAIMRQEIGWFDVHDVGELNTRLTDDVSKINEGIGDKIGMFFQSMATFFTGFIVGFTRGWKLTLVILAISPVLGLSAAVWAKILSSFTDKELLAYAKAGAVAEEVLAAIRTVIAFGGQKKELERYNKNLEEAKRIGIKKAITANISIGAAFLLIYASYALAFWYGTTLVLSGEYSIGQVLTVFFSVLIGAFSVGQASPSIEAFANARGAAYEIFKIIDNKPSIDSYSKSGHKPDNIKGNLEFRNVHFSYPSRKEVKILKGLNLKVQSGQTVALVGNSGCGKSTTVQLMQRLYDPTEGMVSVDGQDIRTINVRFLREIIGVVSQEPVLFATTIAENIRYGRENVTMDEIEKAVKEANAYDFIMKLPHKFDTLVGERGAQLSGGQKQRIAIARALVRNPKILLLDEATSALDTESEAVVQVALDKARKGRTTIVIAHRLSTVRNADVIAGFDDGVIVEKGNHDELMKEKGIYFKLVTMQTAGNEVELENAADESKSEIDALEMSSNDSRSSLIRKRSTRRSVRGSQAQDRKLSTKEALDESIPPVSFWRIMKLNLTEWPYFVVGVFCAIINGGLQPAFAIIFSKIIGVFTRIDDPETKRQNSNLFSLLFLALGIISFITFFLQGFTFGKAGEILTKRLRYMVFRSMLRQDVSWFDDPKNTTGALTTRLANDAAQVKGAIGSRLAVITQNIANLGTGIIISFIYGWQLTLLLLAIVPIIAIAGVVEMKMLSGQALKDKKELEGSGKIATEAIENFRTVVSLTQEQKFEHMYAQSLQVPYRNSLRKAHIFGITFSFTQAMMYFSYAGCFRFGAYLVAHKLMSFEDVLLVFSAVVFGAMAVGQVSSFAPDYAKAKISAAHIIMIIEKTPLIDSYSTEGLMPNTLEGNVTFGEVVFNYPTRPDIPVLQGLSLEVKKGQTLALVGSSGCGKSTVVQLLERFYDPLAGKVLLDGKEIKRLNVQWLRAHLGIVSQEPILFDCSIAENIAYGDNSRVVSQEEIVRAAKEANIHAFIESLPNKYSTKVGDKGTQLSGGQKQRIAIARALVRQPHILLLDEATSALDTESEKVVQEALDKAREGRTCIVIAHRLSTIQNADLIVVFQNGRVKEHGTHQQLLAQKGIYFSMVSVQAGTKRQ

Turning to `COc1ccc2cc(-c3oc4ccccc4c(=O)c3CC(S(=O)(=O)C(F)(F)F)S(=O)(=O)C(F)(F)F)ccc2c1` [Compound 4], the “FAR (fluorescence activity ratio)” value in series [1] (2 μM compound) worked out at 1.48; in series [1] (20 μM), 4.81. Moreover, the “FAR Quotient (%)” value in series [1] (2 μM compound) is reported as 45.42%; in series [1] (20 μM), 147.50%. In addition, the “Increase in efflux pump inhibitory activity of naphthyl vs corresponding phenyl derivative” value in [1] came out at 3.14 fold. The IC50 in [2], in [4], in series [5], in [6] (setting [10]) and in series [7] was above 100 µM each time. The inhibition (commonly the relative decrease from the control value, in per cent) at 200 µM in [3] came to 45%; in series [8], 37%.
On to `COc1ccc(-c2sc3ccccc3c(=O)c2CC(S(=O)(=O)C(F)(F)F)S(=O)(=O)C(F)(F)F)cc1` [Compound 2], for which the viability (commonly a per cent measure of how many cells are alive, often set against a control) at 200 µM in series [9] (highest concentration (200 µM)) amounted to 24%. In addition, the IC50 – broadly, the concentration that gives 50% inhibition – in [9] was 54.98 ± 0.143 µM; in series [2] it was above 100 µM; in [4], above 100 µM; in series [5] it was above 100 µM; in series [6] (setting [10]), above 100 µM; in series [7], above 100 µM. The “FAR (fluorescence activity ratio)” value in series [1] (2 μM compound) was 0.97; in series [1] (20 μM), 1.89. Besides, the “FAR Quotient (%)” value worked out at 29.67% in series [1] (2 μM compound) and 57.83% in series [1] (20 μM). Besides, the inhibition at 200 µM in series [3] worked out at 42%; in series [8] it was 47%.
As to `COc1ccc2cc(-c3sc4ccccc4c(=O)c3CC(S(=O)(=O)C(F)(F)F)S(=O)(=O)C(F)(F)F)ccc2c1` [Compound 5], the “FAR (fluorescence activity ratio)” value stood at 1.95 in series [1] (2 μM compound) and 8.61 in series [1] (20 μM). Moreover, the entries for the “FAR Quotient (%)” value in series [1] (2 μM compound) and in [1] (20 μM) were 59.92% and 264.17%, respectively. For the same compound, the “P-gp inhibition relative to the reference verapamil” value in [1] (20 µM) was 2.64 fold. The “Increase in efflux pump inhibitory activity of naphthyl vs corresponding phenyl derivative” value in series [1] is 4.57 fold. Besides, the IC50 in [2], in series [4], in [5], in [6] (setting [10]) and in series [7] was above 100 µM each time. Moreover, the inhibition at 200 µM is 39% in series [3] and 47% in series [8].
For `COc1ccc(-c2[se]c3ccccc3c(=O)c2CC(S(=O)(=O)C(F)(F)F)S(=O)(=O)C(F)(F)F)cc1` [Compound 3], the viability at 200 µM in series [9] stood at 29%. Besides, the IC50 in series [9] is 41.94 ± 0.286 µM; in [4], above 100 µM; in series [5], above 100 µM; in series [6] (setting [11]) it was above 100 µM; in [7] (setting [12]) it was above 100 µM. The “FAR (fluorescence activity ratio)” value in series [1] (2 μM compound) came out at 1.06; in [1] (20 μM), 1.45. For the same compound, the “FAR Quotient (%)” value came to 32.58% in series [1] (2 μM compound) and 44.33% in [1] (20 μM). The inhibition at 200 µM in series [3] stood at 49%; in series [8], 57%.
Consider `COc1ccc2cc(-c3[se]c4ccccc4c(=O)c3CC(S(=O)(=O)C(F)(F)F)S(=O)(=O)C(F)(F)F)ccc2c1` [Compound 6, bis(triflyl) selenoflavone], for which the viability at 200 µM in series [9] turned out to be 26%. The IC50 in [9] is 80.62 ± 0.142 µM; in series [4] it was above 100 µM; in series [5] it was above 100 µM; in series [6] (setting [11]) it was above 100 µM; in [7] (setting [12]) it was above 100 µM. The results for the “FAR (fluorescence activity ratio)” value in [1] (2 μM compound) and in series [1] (20 μM) were 1.14 and 4.67, respectively. Moreover, the entries for the “FAR Quotient (%)” value in [1] (2 μM compound) and in series [1] (20 μM) were 34.92% and 143.33%, respectively. Moreover, the “Increase in efflux pump inhibitory activity of naphthyl vs corresponding phenyl derivative” value in series [1] was 3.23 fold.
For `COc1ccc(-c2oc3ccccc3c(=O)c2CC(S(=O)(=O)C(F)(F)F)S(=O)(=O)C(F)(F)F)cc1` [Compound 1], in series [9] (highest concentration (200 µM)), the viability at 200 µM amounted to 30%. Also, the IC50 in [9] is 23 ± 0.297 µM; in series [2] it was above 100 µM; in series [4], above 100 µM; in [5], above 100 µM; in series [6] (setting [10]), above 100 µM; in [7], above 100 µM. Besides, the “FAR (fluorescence activity ratio)” value was found to be 1.14 in [1] (2 μM compound) and 1.53 in series [1] (20 μM). The figures for the “FAR Quotient (%)” value in series [1] (2 μM compound) and in series [1] (20 μM) were 34.92% and 46.92%, respectively. For the same compound, the inhibition at 200 µM in series [3] worked out at 30%.
As to `COc1cccc2c1C(=O)c1c(O)c3c(c(O)c1C2=O)C[C@@](O)(C(=O)CO)C[C@@H]3O[C@H]1C[C@H](N)[C@H](O)[C@H](C)O1` [DOXO, Doxorubicin, reference compound], the IC50 in [2] was 1.56 µM; in [4] it was 0.14 µM; in series [5] it was 0.24 µM; in series [6] (setting [11]) it was 6.45 µM; in series [7] (MRC-5 embryonal lung fibroblast cells, MTT, MRC-5 normal lung fibroblasts, read-out: Cytotoxic activity, C—MRC-5 IC50), above 10 µM.
